Data set [1] has as its system Delayed-Type Hypersensitivity (DTH) to sheep red blood cells (SRBC). The experiment in a line: Suppression of delayed-type hypersensitivity (SRBC footpad swelling). The format is in vivo, mouse. As to conditions: for inhibition in vivo at 1 mg: Erythrocyte; for suppression of DTH reaction: anti-inflammatory drugs and protease-inhibitors, 1 mg./mouse. On the procedure: The compounds of Formula (I) show suppression of various delayed-type hypersensitivity. In reference to the method by Lagrange [J. Exp. Med. 139, 528 (1974)], 10^8 sheep red blood cells (SRBC) without adjuvant were subcutaneously injected into the mouse hind footpad to immunize the animal. Four days later the animals were challenged by subcutaneous injection of 10^8 SRBC into another footpad. DTH response was measured as the increase in the thickness of footpad 24 hours after the injection of SRBC.
Varying doses of Compound-1 were administered orally or intraperitoneally either at the time of immunization (day 0) or challenge (day 4).
In FIG. 1 the ordinate indicates the swelling (× 0.1 mm.) of mice footpads on day 5 and the abscissa indicates the dose of Compound-1 per mouse administered by the oral (right) and intraperitoneal (left) routes. Solid line curve indicates the relationship when Compound-1 was administered on day 0 and the dotted line curve indicates the relationship when given on day 4.
The compounds were administered intraperitoneally in a dose 1 mg./mouse at the time of immunization (day 0) or challenge (day 4). Table 1 includes the results of humoral antibody response described later.

In data set [2] the test system is primary antibody formation to sheep red blood cells (SRBC), spleen cells. As to the kind of experiment: Suppression of primary antibody formation (plaque forming cells, Jerne's method). The format is in vivo, mice (ddY-strain). Conditions: for inhibition in vivo at 1 mg: Erythrocyte, ip, 96 h, read-out: Suppression, Plaque Forming Cells (suppression rate of primary antibody formation).
Description: 10^8 sheep red blood cells (SRBC) were injected intravenously into ddY-strain mice to immunize the animals, when the compounds of Formula (I) were administered intraperitoneally.
Each compound was administered intraperitoneally in the dosage of 1 mg./mouse.

Data set [3] is described as follows: Acute toxicity, intraperitoneal. Conditions: mouse, in vivo, ip, mice, read-out: LD50 (approximate). On the procedure:
Acute toxicological studies were carried out on mice by intraperitoneal administration of the compounds of Formula (I). The approximate LD50 values for representative compounds are given as follows: […]

Data set [4] concerns passive cutaneous anaphylaxis (PCA). As to the kind of experiment: Suppression of passive cutaneous anaphylaxis (PCA). The format is in vivo, guinea pigs. Conditions: oral 100 mg./kg.; dilution giving a 10 mm. diameter blue zone; control 1060. On the procedure:
The compounds of Formula (I) are active in suppressing passive cutaneous anaphylaxis (PCA) in guinea pigs. Guinea pigs received intradarmally serial dilutions of antiserum (0.1 ml.), which was obtained from guinea pigs immunized with a mixture of egg albumin and Freund's complete adjuvant. At the time of sensitization with antiserum, the compound of Formula (I) was administered either orally (100 mg./kg.) or intraperitoneally (50 mg./kg.).
Four hours later the animals were challenged by intravenous injection of a mixture of 5 mg. egg albumin and Evans blue dye. The reaction was measured 30 minutes later by the blue zone which emerged at the point of antiserum injection.

The test system of data set [5] is carrageenin-induced edema. Conditions: 1 mg./mouse; cited from earlier work.
[6] abbreviates: 96 h, 1 mg./mouse i.p., at challenge (day 4), read-out: Suppression, Delayed-Type Hypersensitivity, Administered at Induction (suppression rate).
Setting [7] is: ip, 0 h, 1 mg./mouse i.p., at immunization (day 0), read-out: Suppression, Delayed-Type Hypersensitivity, Administered at Immunization (suppression rate).

Where two headings read alike, the source gives them in different places.

For orientation: LD50 means the dose at which mortality reaches 50%.

In the case of `CC(=O)Oc1ccccc1C(=O)Nc1cc(Cl)c(OC(C)=O)c(Cl)c1` [Compound-4, 2,4'-Diacetoxy-3',5'-dichlorobenzanilide], the inhibition in vivo at 1 mg in data set [1] (setting [6]) was more than 75%; in data set [1] (setting [7]) it was 0 to 25%; in data set [2] (1 mg./mouse i.p.) it was 50 to 75%.
With `COc1c(Cl)cc(NC(=O)c2ccccc2O)cc1Cl` [Compound 3], the inhibition in vivo at 1 mg was more than 75% in data set [1] (setting [6]), 0 to 25% in data set [1] (setting [7]) and 50 to 75% in data set [2] (1 mg./mouse i.p.).
Regarding `O=C(Nc1cccc(Cl)c1O)c1ccccc1O` [Compound 23], the inhibition in vivo at 1 mg was 0 to 25% in data set [1] (setting [6]), 0 to 25% in data set [1] (setting [7]) and 50 to 75% in data set [2] (1 mg./mouse i.p.). In addition, the LD50 in data set [3] is 1550 mg/kg.
In the case of `CCC(=O)Oc1ccccc1C(=O)Nc1cc(Br)cc(Br)c1OC(=O)CC` [Compound 15], the inhibition in vivo at 1 mg in data set [1] (setting [6]) was 50 to 75%; in data set [1] (setting [7]), 50 to 75%; in data set [2] (1 mg./mouse i.p.), 0 to 25%. The median lethal dose (LD50) in data set [3] was found to be 2200 mg/kg.
As for `O=C(Nc1cc([N+](=O)[O-])cc([N+](=O)[O-])c1O)c1ccccc1O` [Compound 21], the inhibition in vivo at 1 mg is more than 75% in data set [1] (Mus musculus, 96 h, read-out: Suppression, Delayed-Type Hypersensitivity, Administered at Induction (suppression rate)); 50 to 75% in data set [1] (Mus musculus, ip, 0 h, read-out: Suppression, Delayed-Type Hypersensitivity, Administered at Immunization (suppression rate)); 0 to 25% in data set [2] (Mus musculus).
With `O=C(Nc1ccc(O)c(Cl)c1)c1ccccc1O` [Compound 22], the inhibition in vivo at 1 mg was 0 to 25% in data set [1] (setting [6]), 0 to 25% in data set [1] (setting [7]) and more than 75% in data set [2] (1 mg./mouse i.p.).
For `O=C(Oc1ccccc1C(=O)Nc1cc(Cl)c(OC(=O)c2ccccc2)c(Cl)c1)c1ccccc1` [Compound 6], the figures for the inhibition in vivo at 1 mg in data set [1] (setting [6]), in data set [1] (setting [7]) and in data set [2] (1 mg./mouse i.p.) were more than 75%, 0 to 25% and more than 75%, respectively. Further, in data set [3], the LD50 worked out at 2800 mg/kg.
Consider `COc1ccc(NC(=O)c2ccccc2O)cc1` [Compound-27, 2-Hydroxy-4'-methoxybenzanilide], for which the figures for the inhibition in vivo at 1 mg in data set [1] (setting [6]), in data set [1] (setting [7]) and in data set [2] (1 mg./mouse i.p.) were more than 75%, 0 to 25% and more than 75%, respectively. The “Max. Dilution of Antiserum, Oral” value in data set [4] was determined as 284. The median lethal dose (LD50) in data set [3] was more than 3000 mg/kg.
Consider `Cc1cc(Cl)cc(NC(=O)c2ccccc2O)c1O` [Compound 19], for which the inhibition in vivo at 1 mg in data set [1] (setting [6]) lay within 25 to 50%; in data set [1] (setting [7]) it was 0 to 25%; in data set [2] (1 mg./mouse i.p.) it was 25 to 50%. Further, the median lethal dose (LD50) in data set [3] was 1800 mg/kg.
Take `O=C(Nc1cc(F)c(O)c(Cl)c1)c1ccccc1O` [Compound 17]: the inhibition in vivo at 1 mg in data set [1] (setting [6]) was more than 75%; in data set [1] (setting [7]) it was 0 to 25%; in data set [2] (1 mg./mouse i.p.) it was more than 75%.
With `CC(=O)Oc1ccccc1C(=O)Nc1cc(Cl)c(O)c(Cl)c1` [Compound 8], the inhibition in vivo at 1 mg lay within 0 to 25% in data set [1] (setting [6]), 0 to 25% in data set [1] (setting [7]) and 25 to 50% in data set [2] (1 mg./mouse i.p.).
`CC(=O)Oc1ccccc1C(=O)Nc1cccc(Cl)c1OC(C)=O` [Compound 25]: the inhibition in vivo at 1 mg in data set [1] (setting [6]) was in the range of 25 to 50%; in data set [1] (setting [7]), 0 to 25%; in data set [2] (1 mg./mouse i.p.) it was 50 to 75%. The 50% lethal dose (LD50) in data set [3] is 2500 mg/kg.
For the molecule `CCC(=O)Oc1ccccc1C(=O)Nc1cc(Cl)c(OC(=O)CC)c(Cl)c1` [Compound 5], the inhibition in vivo at 1 mg was more than 75% in data set [1] (setting [6]), 0 to 25% in data set [1] (setting [7]) and 50 to 75% in data set [2] (1 mg./mouse i.p.).
The matching figures for `Cc1ccc(C(=O)Nc2cc(Br)c(O)c(Br)c2)c(O)c1` [Compound 16]: more than 75%, 50 to 75% and 0 to 25%.
Consider `CC(=O)Oc1ccccc1C(=O)O` [aspirin, reference compound], for which the “suppression of DTH reaction” value in data set [1] is “little suppression of this DTH reaction”. Besides, the “suppression of carrageenin-induced edema” value in data set [5] is “strongly suppress carrageenin-induced edema”.
On to `Cc1ccc(C(=O)Nc2cc(Cl)c(O)c(Cl)c2)c(O)c1` [Compound 11], for which the results for the inhibition in vivo at 1 mg in data set [1] (setting [6]), in data set [1] (setting [7]) and in data set [2] (1 mg./mouse i.p.) were 0 to 25%, more than 75% and 25 to 50%, respectively.
Take `CC(C)C[C@H](NC(=O)[C@@H](NC(=O)N[C@@H](Cc1ccccc1)C(=O)O)[C@@H]1CCN=C(N)N1)C(=O)N[C@H](C=O)Cc1ccccc1` [chymostatin, reference compound]: in data set [1], the “suppression of DTH reaction” value is recorded as “little suppression of this DTH reaction”. Also, the “suppression of carrageenin-induced edema” value in data set [5] is given as “strongly suppress carrageenin-induced edema”.
Regarding `O=C(Nc1cc(Br)c(O)c(Br)c1)c1ccccc1O` [Compound-12, 3',5'-Dibromo-2,4'-dihydroxybenzanilide], the inhibition in vivo at 1 mg in data set [1] (setting [6]) is 50 to 75%; in data set [1] (setting [7]), more than 75%; in data set [2] (1 mg./mouse i.p.), 0 to 25%. Moreover, in data set [4], the “Max. Dilution of Antiserum, Oral” value amounted to 548. The LD50 in data set [3] came out at 1100 mg/kg.
For `CCOc1c(Br)cc(NC(=O)c2ccccc2O)cc1Br` [Compound 14], the inhibition in vivo at 1 mg is more than 75% in data set [1] (setting [6]), 50 to 75% in data set [1] (setting [7]) and 0 to 25% in data set [2] (1 mg./mouse i.p.).
Taken in the same sequence, the figures for `O=C(Nc1ccc(O)cc1)c1ccccc1O` [Compound 26] were 50 to 75%, 0 to 25% and 50 to 75%.
Regarding `O=C(Nc1cc(Cl)c(O)c(Cl)c1)c1ccc(F)cc1O` [Compound 10], the inhibition in vivo at 1 mg in data set [1] (setting [6]) was more than 75%; in data set [1] (setting [7]), 0 to 25%; in data set [2] (1 mg./mouse i.p.) it was 25 to 50%.
For `COc1ccc(NC(=O)c2ccc(C)cc2O)cc1` [Compound-29, 2-Hydroxy-4-methyl-4'-methoxybenzanilide], the inhibition in vivo at 1 mg is more than 75% in data set [1] (setting [6]), 0 to 25% in data set [1] (setting [7]) and 25 to 50% in data set [2] (1 mg./mouse i.p.). In data set [3], the LD50 amounted to 2500 mg/kg.
Turning to `O=C(O)COc1c(Cl)cc(NC(=O)c2ccccc2O)cc1Cl` [Compound 9], the inhibition in vivo at 1 mg in data set [1] (setting [6]) was more than 75%; in data set [1] (setting [7]), 0 to 25%; in data set [2] (1 mg./mouse i.p.), 0 to 25%.
As to `COc1ccc(NC(=O)c2ccc(C)cc2OC(C)=O)cc1` [Compound 32], the “Suppression, Delayed-Type Hypersensitivity, Administered at Induction (suppression rate)” value in data set [1] (1 mg./mouse i.p., at challenge (day 4)) was “+ (25 - 50%+-)”. In addition, in data set [1] (1 mg./mouse i.p., at immunization (day 0)), the “Suppression, Delayed-Type Hypersensitivity, Administered at Immunization (suppression rate)” value is “- (0 - 25% +-)”. Also, in data set [2] (1 mg./mouse i.p.), the “Suppression, Plaque Forming Cells (suppression rate of primary antibody formation)” value is given as “- (0 - 25% +-)”.
In the case of `Cc1cc(Cl)c(O)c(NC(=O)c2ccccc2O)c1` [Compound 20], the results for the inhibition in vivo at 1 mg in data set [1] (setting [6]), in data set [1] (setting [7]) and in data set [2] (1 mg./mouse i.p.) were more than 75%, 0 to 25% and 50 to 75%, respectively.
Regarding `O=C(Nc1cc(Br)cc(Br)c1O)c1ccccc1O` [Compound 13], the inhibition in vivo at 1 mg in data set [1] (setting [6]) was 50 to 75%; in data set [1] (setting [7]), 50 to 75%; in data set [2] (1 mg./mouse i.p.) it was 0 to 25%. The median lethal dose (LD50) in data set [3] is 1280 mg/kg.
As to `CCOc1ccc(NC(=O)c2ccc(F)cc2O)cc1Cl` [Compound 24], the inhibition in vivo at 1 mg in data set [1] (setting [6]) was 50 to 75%; in data set [1] (setting [7]) it was 0 to 25%; in data set [2] (1 mg./mouse i.p.), 25 to 50%.
Taken in the same sequence, the figures for `COc1c(F)cc(NC(=O)c2ccc(Cl)cc2O)cc1Cl` [Compound 18] were more than 75%, 0 to 25% and 25 to 50%.
Take `COc1ccc(NC(=O)c2ccc(F)cc2O)cc1` [Compound 28]: the inhibition in vivo at 1 mg in data set [1] (setting [6]) is more than 75%; in data set [1] (setting [7]), 0 to 25%; in data set [2] (1 mg./mouse i.p.), more than 75%. Also, the 50% lethal dose (LD50) in data set [3] worked out at 2800 mg/kg.
As to `CCOc1ccc(NC(=O)c2ccc(F)cc2O)cc1` [Compound 31], the inhibition in vivo at 1 mg in data set [1] (setting [6]) is more than 75%; in data set [1] (setting [7]) it was 0 to 25%; in data set [2] (1 mg./mouse i.p.) it was 50 to 75%.
On to `CC(=O)Oc1ccccc1C(=O)Nc1cc(Cl)cc(Cl)c1OC(C)=O` [Compound 7], for which the values for the inhibition in vivo at 1 mg in data set [1] (setting [6]), in data set [1] (setting [7]) and in data set [2] (1 mg./mouse i.p.) were more than 75%, 0 to 25% and 50 to 75%, respectively. Further, in data set [3], the 50% lethal dose (LD50) is more than 3000 mg/kg.

The record behind these values is patent US4032635A, “Pharmaceutical method for the therapy of immune diseases” (Zaidan Hojin Biseibutsu Kagaku Kenkyu Kai, priority 1975, dated 1977).
